Reference: patent US7803930B2, “Antisense modulation of apolipoprotein B-expression” (Isis Pharmaceuticals, Inc., priority 2002, dated 2010)
In the oligonucleotide strings, read from the 5' end, every base follows the letter of its sugar. An asterisk marks phosphorothioate; unmarked linkages are phosphodiester. Other units and linkages are bracketed, terminal groups are in braces. A string of capitals states the bases alone. e = 2'-O-(2-methoxyethyl) (MOE); [5mC] = 5-methylcytosine; d = 2'-deoxy (DNA)

How the values were obtained:
[1] = LDLr(-/-) mice dose response (Example 44): liver enzyme, cholesterol and triglyceride levels; type: in vivo, mouse; conditions: 50 mg/kg i.p. twice a week, six weeks
Procedure: LDLr(−/−) mice, purchased from Taconic (Germantown, N.Y.) were used to evaluate antisense oligonucleotides for their potential to lower apolipoprotein B mRNA or protein levels, as well as phenotypic endpoints associated with apolipoprotein B. LDLr(−/−) mice were separated into groups of males and females. LDLr(−/−) mice were dosed intraperitoneally twice a week for six weeks with either 10, 25, or 50 mg/kg of ISIS 147764 (SEQ ID NO: 109) or ISIS 270906 (SEQ ID NO: 856) which is a 4 base mismatch of ISIS 147764, or with saline, or 20 mg/kg of Atorvastatin. At study termination animals were sacrificed and evaluated for several phenotypic markers.

[2] = system: Cynomolgous monkey apolipoprotein B mRNA; experiment: Apolipoprotein B mRNA in primary Cynomolgous monkey hepatocytes, real-time PCR; type: cell-based; conditions: for % Inhibition of apolipoprotein B mRNA: primary Cynomolgous monkey hepatocytes
Procedure: Antisense inhibition by ISIS 301012 was compared to that of ISIS 326358, which is a perfect match to the Cynomolgous monkey apolipoprotein B sequence to which ISIS 301012 hybridizes. The compounds were analyzed for their effect on Cynomolgous monkey apolipoprotein B mRNA levels in primary Cynomolgous monkey hepatocytes purchased from In Vitro Technologies ([…].). Pre-plated primary Cynonomolgous monkey hepatocytes were purchased from InVitro Technologies (Baltimore, Md.). Cells were cultured in high-glucose DMEM (Invitrogen Corporation, Carlsbad, Calif.) supplemented with 10% fetal bovine serum (Invitrogen Corporation, Carlsbad, Calif.), 100 units/mL and 100 μg/mL streptomycin (Invitrogen Corporation, Carlsbad, Calif.).
Primary Cynomolgous monkey hepatocytes were treated with 10, 50, 150 or 300 nM of antisense oligonucleotides for 48 hours. ISIS 113529 (SEQ ID NO: 859) was used as a control oligonucleotide. Untreated cells also served as a control. Cynomolgous monkey apolipoprotein B mRNA levels were quantitated by real-time PCR using the human apolipoprotein B and GAPDH primers and probes described by other examples herein. The results, shown in Table 44, are the average of 6 experiments and are expressed as percent inhibition of apolipoprotein B mRNA normalized to untreated control cells.
In a further embodiment of the invention, antisense inhibition by ISIS 281625 was compared to that by ISIS 315089, which is a perfect match to the Cynomolgous monkey apolipoprotein B sequence to which ISIS 281625 hybridizes. Primary Cynomolgous monkey hepatocytes, cultured as described herein, were treated with 10, 50, 150 or 300 nM of ISIS 315089 or ISIS 281625 for 24 hours. Cells were treated with the control oligonucleotide ISIS 13650 (SEQ ID NO: 806) at 150 and 300 nM or ISIS 113529 (SEQ ID NO: 859) at 300 nM. Untreated cells also served as a control. Cynomolgous monkey apolipoprotein B mRNA levels in primary Cynomolgous monkey hepatocytes was quantitated using real-time PCR with human primers and probe as described by other examples herein. The results, shown in Table 46, are the average of 3 experiments and are expressed as percent inhibition of apolipoprotein B mRNA normalized to untreated control cells.
ISIS 271009 (SEQ ID NO: 319) and ISIS 301027 (SEQ ID NO: 262) were also tested for their effects on apolipoprotein B mRNA and protein expression in Cynomolgous primary hepatoctyes. Cells, cultured as described herein, were treated with 10, 50 and 150 nM of ISIS 271009 or ISIS 301027 for 24 hours. Cells were treated with the control oligonucleotide ISIS 113529 (SEQ ID NO: 859) at 150 nM. Untreated cells also served as a control. Cynomolgous monkey apolipoprotein B mRNA levels in primary Cynomolgous monkey hepatocytes was quantitated using real-time PCR with human primers and probe as described by other examples herein. The results, shown in Table 48, are the average of 2 experiments and are expressed as percent inhibition of apolipoprotein B mRNA normalized to untreated control cells.

[3] = system: apolipoprotein B protein; experiment: Apolipoprotein B protein secreted from primary Cynomolgous monkey hepatocytes, ELISA; type: cell-based; conditions: for % Reduction of monkey apolipoprotein B protein secretion / secretion of apolipoprotein B protein (ELISA): primary Cynomolgous hepatocytes; for % Reduction in secreted apolipoprotein B protein: primary Cynomolgous monkey hepatocytes
Procedure: Apolipoprotein B protein secreted from primary Cynomolgous hepatocytes treated with 150 and 300 nM of oligonucleotide was measured by ELISA using an apolipoprotein B protein specific kit (ALerCHEK Inc., Portland, Me.). Each result represents the average of 3 experiments.
Apolipoprotein B protein secreted primary Cynomolgous hepatocytes treated with 50 and 150 nM of ISIS 315089 and ISIS 281625 was measured by ELISA using an apolipoprotein B protein specific kit (ALerCHEK Inc., Portland, Me.). Each result represents the average of 3 experiments.
Apolipoprotein B protein secreted from primary Cynomolgous hepatocytes treated with 50 and 150 nM of ISIS 271009 and ISIS 301027 was measured by ELISA using an apolipoprotein B protein specific kit (ALerCHEK Inc., Portland, Me.). Each result represents the average of 3 experiments.

[4] = system: mouse apolipoprotein B mRNA; experiment: Inhibition of mouse apolipoprotein B mRNA levels in primary mouse hepatocytes, real-time PCR; type: cell-based; conditions: Table 3, 150 nM, averages from two experiments
Procedure: Primary mouse hepatocytes were prepared from CD-1 mice purchased from Charles River Labs (Wilmington, Mass.) and were routinely cultured in Hepatoyte Attachment Media (Gibco) supplemented with 10% Fetal Bovine Serum (Gibco/Life Technologies, Gaithersburg, Md.), 250 nM dexamethasone (Sigma), and 10 nM bovine insulin (Sigma). Cells were seeded into 96-well plates (Falcon-Primaria #3872) at a density of 10000 cells/well for use in RT-PCR analysis.
When cells reached 80% confluency, they were treated with oligonucleotide. For cells grown in 96-well plates, wells were washed once with 200 μL OPTI-MEM™-1 reduced-serum medium (Gibco BRL) and then treated with 130 μL of OPTI-MEM™-1 containing 3.75 μg/mL LIPOFECTIN™ (Gibco BRL) and the desired concentration of oligonucleotide. After 4-7 hours of treatment, the medium was replaced with fresh medium. Cells were harvested 16-24 hours after oligonucleotide treatment.
Quantitation of apolipoprotein B mRNA levels was determined by real-time quantitative PCR using the ABI PRISM™ 7700 Sequence Detection System (PE-Applied Biosystems, Foster City, Calif.) according to manufacturer's instructions. This is a closed-tube, non-gel-based, fluorescence detection system which allows high-throughput quantitation of polymerase chain reaction (PCR) products in real-time. As opposed to standard PCR, in which amplification products are quantitated after the PCR is completed, products in real-time quantitative PCR are quantitated as they accumulate. This is accomplished by including in the PCR reaction an oligonucleotide probe that anneals specifically between the forward and reverse PCR primers, and contains two fluorescent dyes. A reporter dye (e.g., JOE, FAM, or VIC, obtained from either Operon Technologies Inc., Alameda, Calif. or PE-Applied Biosystems, Foster City, Calif.) is attached to the 5′ end of the probe and a quencher dye (e.g., TAMRA, obtained from either Operon Technologies Inc., Alameda, Calif. or PE-Applied Biosystems, Foster City, Calif.) is attached to the 3′ end of the probe. When the probe and dyes are intact, reporter dye emission is quenched by the proximity of the 3′ quencher dye. During amplification, annealing of the probe to the target sequence creates a substrate that can be cleaved by the 5′-exonuclease activity of Taq polymerase. […] With each cycle, additional reporter dye molecules are cleaved from their respective probes, and the fluorescence intensity is monitored at regular intervals by laser optics built into the ABI PRISM™ 7700 Sequence Detection System. In each assay, a series of parallel reactions containing serial dilutions of mRNA from untreated control samples generates a standard curve that is used to quantitate the percent inhibition after antisense oligonucleotide treatment of test samples.
Probes and primers to mouse apolipoprotein B were designed to hybridize to a mouse apolipoprotein B sequence, using published sequence information (GenBank accession number M35186, incorporated herein as SEQ ID NO: 10). For mouse apolipoprotein B the PCR primers were: forward primer: CGTGGGCTCCAGCATTCTA (SEQ ID NO: 11) reverse primer: […] (SEQ ID NO: 12) and the PCR probe was: FAM-[…]-TAMRA SEQ ID NO: 13) where FAM (PE-Applied Biosystems, Foster City, Calif.) is the fluorescent reporter dye) and TAMRA (PE-Applied Biosystems, Foster City, Calif.) is the quencher dye. For mouse GAPDH the PCR primers were: forward primer: […] (SEQ ID NO: 14) reverse primer: […] (SEQ ID NO:15) and the PCR probe was: 5′ JOE-[…]-TAMRA 3′ (SEQ ID NO: 16) where JOE (PE-Applied Biosystems, Foster City, Calif.) is the fluorescent reporter dye) and TAMRA (PE-Applied Biosystems, Foster City, Calif.) is the quencher dye.
In accordance with the present invention, a series of oligonucleotides was designed to target different regions of the mouse apolipoprotein B RNA, using published sequence (GenBank accession number M35186, incorporated herein as SEQ ID NO: 10). […]

270906 (antisense GTCCCTCAACATCTGAATGC; listed as DNA, chemistry not given here) [compound 270906]
Lipoproteins CHOL ([1]; female LDLr(-/-) mice): 564.6 mg/dL
Lipoproteins HDL ([1]; female LDLr(-/-) mice): 200.0 mg/dL
Lipoproteins LDL ([1]; female LDLr(-/-) mice): 310.0 mg/dL
Lipoproteins TRIG ([1]; female LDLr(-/-) mice): 240.4 mg/dL
Liver Enzymes ALT ([1]; female LDLr(-/-) mice): 88.6 IU/L
Liver Enzymes AST ([1]; female LDLr(-/-) mice): 96.0 IU/L
Lipoproteins CHOL ([1]; male LDLr(-/-) mice): 941.0 mg/dL
Lipoproteins HDL ([1]; male LDLr(-/-) mice): 244.2 mg/dL
Lipoproteins LDL ([1]; male LDLr(-/-) mice): 541.9 mg/dL
Lipoproteins TRIG ([1]; male LDLr(-/-) mice): 844.8 mg/dL
Liver Enzymes ALT ([1]; male LDLr(-/-) mice): 348.0 IU/L
Liver Enzymes AST ([1]; male LDLr(-/-) mice): 167.4 IU/L

315089 (antisense eA*eG*eA*eT*eT*dA*d[5mC]*d[5mC]*dA*dG*d[5mC]*d[5mC]*dA*dT*dA*eT*eG*e[5mC]*eA*eG) [compound 315089]
% Inhibition of apolipoprotein B mRNA ([2]; 10 nM, 24 hours (Table 46), "+" = expression increased): 70%
% Inhibition of apolipoprotein B mRNA ([2]; 50 nM, 24 hours (Table 46)): 83%
% Inhibition of apolipoprotein B mRNA ([2]; 150 nM, 24 hours (Table 46), "+" = expression increased): 81%
% Inhibition of apolipoprotein B mRNA ([2]; 300 nM, 24 hours (Table 46)): 82%
% Reduction of monkey apolipoprotein B protein secretion ([3]; 50 nM (Table 47)): 11%
% Reduction of monkey apolipoprotein B protein secretion ([3]; 150 nM (Table 47)): 25%

AGATTACCAGCCATATGCAG (gapmer: ten 2'-deoxy gap, five-nucleotide wings, wing chemistry not given here) [ISIS 315089]
inhibition of apolipoprotein B mRNA expression ([2]; Cynomolgous monkey primary hepatocytes, 10, 50, 150 or 300 nM, 24 hours): in a dose-dependent manner
secretion of apolipoprotein B protein (ELISA) ([3]; 150 nM): decrease
secretion of apolipoprotein B protein (ELISA) ([3]; 50 and 150 nM (statement after Table 49)): decrease

326358 (antisense eG*e[5mC]*e[5mC]*eT*e[5mC]*dA*dG*dT*d[5mC]*dT*dG*d[5mC]*dT*dT*dT*eA*e[5mC]*eA*e[5mC]*e[5mC]) [compound 326358]
% Inhibition of apolipoprotein B mRNA ([2]; 10 nM, 24 hours): 35%
% Inhibition of apolipoprotein B mRNA ([2]; 10 nM, 48 hours): 85%
% Inhibition of apolipoprotein B mRNA ([2]; 50 nM, 24 hours): 66%
% Inhibition of apolipoprotein B mRNA ([2]; 50 nM, 48 hours): 88%
% Inhibition of apolipoprotein B mRNA ([2]; 150 nM, 24 hours): 61%
% Inhibition of apolipoprotein B mRNA ([2]; 150 nM, 48 hours): 82%
% Inhibition of apolipoprotein B mRNA ([2]; 300 nM, 24 hours): 64%
% Inhibition of apolipoprotein B mRNA ([2]; 300 nM, 48 hours): 87%
% Reduction in secreted apolipoprotein B protein ([3]; 150 nM, 24 hours): 21%
% Reduction in secreted apolipoprotein B protein ([3]; 150 nM, 48 hours): 29%
% Reduction in secreted apolipoprotein B protein ([3]; 300 nM, 24 hours): 17%
% Reduction in secreted apolipoprotein B protein ([3]; 300 nM, 48 hours): 35%

147771 (eG*eG*eT*eA*eA*dA*dG*dT*dT*dG*d[5mC]*d[5mC]*d[5mC]*dA*dT*eG*eG*e[5mC]*eT*eG; antisense) [compound 147771]
% INHIB [4]: 68%

147481 (eT*eG*eA*e[5mC]*eT*dG*dT*d[5mC]*dA*dA*dG*dG*dG*dT*dG*eA*eG*e[5mC]*eT*eG; antisense) [compound 147481]
% INHIB [4]: 24%

147775 (antisense e[5mC]*eT*eG*eT*e[5mC]*dA*dT*dG*dA*d[5mC]*dT*dG*d[5mC]*d[5mC]*d[5mC]*eT*eT*eT*eA*e[5mC]) [compound 147775]
% INHIB [4]: 52%

147772 (antisense eG*eT*eT*eA*eT*dA*dA*dA*dG*dT*d[5mC]*d[5mC]*dA*dG*d[5mC]*eA*eT*eT*eG*eG) [compound 147772]
% INHIB [4]: 78%

147496 (eA*e[5mC]*e[5mC]*eA*eT*dG*dG*dA*dA*dA*dA*d[5mC]*dT*dG*dG*e[5mC]*eA*eA*e[5mC]*eT; antisense) [compound 147496]
% INHIB [4]: 19%
